± gives the expanded uncertainty stated by the source.
Key:
[1] = xn = mol fraction of the nth substance listed; details: for viscosity: Liquid
[2] = for viscosity: Liquid

OCCO [1,2-ethanediol] + O
surface tension liquid-gas ([1]; 308.15 K, x1 = 0.0145): 69.73 ± 1.4 mN/m | surface tension liquid-gas ([1]; 308.15 K, x1 = 0.0312): 67.83 ± 1.4 mN/m | surface tension liquid-gas ([1]; 308.15 K, x1 = 0.0484): 66.13 ± 1.4 mN/m | surface tension liquid-gas ([1]; 308.15 K, x1 = 0.0686): 64.57 ± 1.3 mN/m | surface tension liquid-gas ([1]; 308.15 K, x1 = 0.0883): 63.27 ± 1.3 mN/m | surface tension liquid-gas ([1]; 308.15 K, x1 = 0.1107): 62.14 ± 1.3 mN/m | surface tension liquid-gas ([1]; 308.15 K, x1 = 0.1621): 60.02 ± 1.3 mN/m | surface tension liquid-gas ([1]; 308.15 K, x1 = 0.2247): 57.51 ± 1.2 mN/m | surface tension liquid-gas ([1]; 308.15 K, x1 = 0.3032): 56.03 ± 1.2 mN/m | surface tension liquid-gas ([1]; 308.15 K, x1 = 0.4035): 54.03 ± 1.2 mN/m | surface tension liquid-gas ([1]; 308.15 K, x1 = 0.5366): 52.47 ± 1.2 mN/m | surface tension liquid-gas ([1]; 308.15 K, x1 = 1): 50.11 ± 1.1 mN/m | viscosity ([1]; 308.15 K, x1 = 0.0145): 0.7543 ± 0.05 mPa·s | viscosity ([1]; 308.15 K, x1 = 0.0312): 0.8381 ± 0.055 mPa·s | viscosity ([1]; 308.15 K, x1 = 0.0484): 0.9241 ± 0.06 mPa·s | viscosity ([1]; 308.15 K, x1 = 0.0686): 1.021 ± 0.065 mPa·s | viscosity ([1]; 308.15 K, x1 = 0.0883): 1.133 ± 0.071 mPa·s | viscosity ([1]; 308.15 K, x1 = 0.1107): 1.266 ± 0.079 mPa·s | viscosity ([1]; 308.15 K, x1 = 0.1621): 1.574 ± 0.096 mPa·s | viscosity ([1]; 308.15 K, x1 = 0.2247): 2.036 ± 0.12 mPa·s | viscosity ([1]; 308.15 K, x1 = 0.3032): 2.662 ± 0.16 mPa·s | viscosity ([1]; 308.15 K, x1 = 0.4035): 3.512 ± 0.2 mPa·s | viscosity ([1]; 308.15 K, x1 = 0.5366): 4.7 ± 0.27 mPa·s | viscosity ([1]; 308.15 K, x1 = 1): 9.212 ± 0.45 mPa·s | surface tension liquid-gas ([1]; 313.15 K, x1 = 0.0145): 66.55 ± 1.4 mN/m | surface tension liquid-gas ([1]; 313.15 K, x1 = 0.0312): 65.58 ± 1.4 mN/m | surface tension liquid-gas ([1]; 313.15 K, x1 = 0.0484): 64.09 ± 1.3 mN/m | surface tension liquid-gas ([1]; 313.15 K, x1 = 0.0686): 62.51 ± 1.3 mN/m | surface tension liquid-gas ([1]; 313.15 K, x1 = 0.0883): 61.32 ± 1.3 mN/m | surface tension liquid-gas ([1]; 313.15 K, x1 = 0.1107): 60.32 ± 1.3 mN/m | surface tension liquid-gas ([1]; 313.15 K, x1 = 0.1621): 58.1 ± 1.2 mN/m | surface tension liquid-gas ([1]; 313.15 K, x1 = 0.2247): 55.92 ± 1.2 mN/m | surface tension liquid-gas ([1]; 313.15 K, x1 = 0.3032): 54.45 ± 1.2 mN/m | surface tension liquid-gas ([1]; 313.15 K, x1 = 0.4035): 52.41 ± 1.2 mN/m | surface tension liquid-gas ([1]; 313.15 K, x1 = 0.5366): 50.7 ± 1.1 mN/m | surface tension liquid-gas ([1]; 313.15 K, x1 = 1): 48.73 ± 1.1 mN/m | viscosity ([1]; 313.15 K, x1 = 0.0145): 0.7037 ± 0.047 mPa·s | viscosity ([1]; 313.15 K, x1 = 0.0312): 0.764 ± 0.051 mPa·s | viscosity ([1]; 313.15 K, x1 = 0.0484): 0.8372 ± 0.055 mPa·s | viscosity ([1]; 313.15 K, x1 = 0.0686): 0.9256 ± 0.06 mPa·s | viscosity ([1]; 313.15 K, x1 = 0.0883): 1.017 ± 0.065 mPa·s | viscosity ([1]; 313.15 K, x1 = 0.1107): 1.127 ± 0.071 mPa·s | viscosity ([1]; 313.15 K, x1 = 0.1621): 1.405 ± 0.087 mPa·s | viscosity ([1]; 313.15 K, x1 = 0.2247): 1.772 ± 0.11 mPa·s | viscosity ([1]; 313.15 K, x1 = 0.3032): 2.298 ± 0.14 mPa·s | viscosity ([1]; 313.15 K, x1 = 0.4035): 3.017 ± 0.18 mPa·s | viscosity ([1]; 313.15 K, x1 = 0.5366): 4.054 ± 0.23 mPa·s | viscosity ([1]; 313.15 K, x1 = 1): 7.961 ± 0.4 mPa·s | surface tension liquid-gas ([1]; 318.15 K, x1 = 0.0145): 65.92 ± 1.4 mN/m | surface tension liquid-gas ([1]; 318.15 K, x1 = 0.0312): 63.92 ± 1.3 mN/m | surface tension liquid-gas ([1]; 318.15 K, x1 = 0.0484): 62.24 ± 1.3 mN/m | surface tension liquid-gas ([1]; 318.15 K, x1 = 0.0686): 60.57 ± 1.3 mN/m | surface tension liquid-gas ([1]; 318.15 K, x1 = 0.0883): 59.21 ± 1.3 mN/m | surface tension liquid-gas ([1]; 318.15 K, x1 = 0.1107): 58.41 ± 1.3 mN/m | surface tension liquid-gas ([1]; 318.15 K, x1 = 0.1621): 56.25 ± 1.2 mN/m | surface tension liquid-gas ([1]; 318.15 K, x1 = 0.2247): 54.36 ± 1.2 mN/m | surface tension liquid-gas ([1]; 318.15 K, x1 = 0.3032): 52.66 ± 1.2 mN/m | surface tension liquid-gas ([1]; 318.15 K, x1 = 0.4035): 50.65 ± 1.1 mN/m | surface tension liquid-gas ([1]; 318.15 K, x1 = 0.5366): 49.34 ± 1.1 mN/m | surface tension liquid-gas ([1]; 318.15 K, x1 = 1): 47.25 ± 1.1 mN/m | viscosity ([1]; 318.15 K, x1 = 0.0145): 0.6336 ± 0.043 mPa·s | viscosity ([1]; 318.15 K, x1 = 0.0312): 0.6785 ± 0.046 mPa·s | viscosity ([1]; 318.15 K, x1 = 0.0484): 0.7424 ± 0.05 mPa·s | viscosity ([1]; 318.15 K, x1 = 0.0686): 0.7995 ± 0.053 mPa·s | viscosity ([1]; 318.15 K, x1 = 0.0883): 0.8755 ± 0.057 mPa·s | viscosity ([1]; 318.15 K, x1 = 0.1107): 0.9589 ± 0.062 mPa·s | viscosity ([1]; 318.15 K, x1 = 0.1621): 1.184 ± 0.074 mPa·s | viscosity ([1]; 318.15 K, x1 = 0.2247): 1.48 ± 0.091 mPa·s | viscosity ([1]; 318.15 K, x1 = 0.3032): 1.888 ± 0.11 mPa·s | viscosity ([1]; 318.15 K, x1 = 0.4035): 2.468 ± 0.15 mPa·s | viscosity ([1]; 318.15 K, x1 = 0.5366): 3.283 ± 0.19 mPa·s | viscosity ([1]; 318.15 K, x1 = 1): 6.293 ± 0.34 mPa·s | surface tension liquid-gas ([1]; 323.15 K, x1 = 0.0145): 63.24 ± 1.3 mN/m | surface tension liquid-gas ([1]; 323.15 K, x1 = 0.0312): 60.58 ± 1.3 mN/m | surface tension liquid-gas ([1]; 323.15 K, x1 = 0.0484): 59.62 ± 1.3 mN/m | surface tension liquid-gas ([1]; 323.15 K, x1 = 0.0686): 57.96 ± 1.2 mN/m | surface tension liquid-gas ([1]; 323.15 K, x1 = 0.0883): 56.77 ± 1.2 mN/m | surface tension liquid-gas ([1]; 323.15 K, x1 = 0.1107): 55.75 ± 1.2 mN/m | surface tension liquid-gas ([1]; 323.15 K, x1 = 0.1621): 54.15 ± 1.2 mN/m | surface tension liquid-gas ([1]; 323.15 K, x1 = 0.2247): 52.15 ± 1.2 mN/m | surface tension liquid-gas ([1]; 323.15 K, x1 = 0.3032): 50.52 ± 1.1 mN/m | surface tension liquid-gas ([1]; 323.15 K, x1 = 0.4035): 49.12 ± 1.1 mN/m | surface tension liquid-gas ([1]; 323.15 K, x1 = 0.5366): 47.88 ± 1.1 mN/m | surface tension liquid-gas ([1]; 323.15 K, x1 = 1): 46.41 ± 1.1 mN/m | viscosity ([1]; 323.15 K, x1 = 0.0145): 0.5878 ± 0.041 mPa·s | viscosity ([1]; 323.15 K, x1 = 0.0312): 0.6321 ± 0.043 mPa·s | viscosity ([1]; 323.15 K, x1 = 0.0484): 0.6876 ± 0.046 mPa·s | viscosity ([1]; 323.15 K, x1 = 0.0686): 0.7433 ± 0.05 mPa·s | viscosity ([1]; 323.15 K, x1 = 0.0883): 0.8133 ± 0.053 mPa·s | viscosity ([1]; 323.15 K, x1 = 0.1107): 0.8853 ± 0.058 mPa·s | viscosity ([1]; 323.15 K, x1 = 0.1621): 1.082 ± 0.068 mPa·s | viscosity ([1]; 323.15 K, x1 = 0.2247): 1.339 ± 0.083 mPa·s | viscosity ([1]; 323.15 K, x1 = 0.3032): 1.679 ± 0.1 mPa·s | viscosity ([1]; 323.15 K, x1 = 0.4035): 2.179 ± 0.13 mPa·s | viscosity ([1]; 323.15 K, x1 = 0.5366): 2.874 ± 0.17 mPa·s | viscosity ([1]; 323.15 K, x1 = 1): 5.447 ± 0.3 mPa·s

OCCO [1,2-ethanediol]
surface tension liquid-gas ([2]; 308.15 K): 50.11 ± 1.1 mN/m | viscosity ([2]; 308.15 K): 9.212 ± 0.45 mPa·s | surface tension liquid-gas ([2]; 313.15 K): 48.73 ± 1.1 mN/m | viscosity ([2]; 313.15 K): 7.961 ± 0.4 mPa·s | surface tension liquid-gas ([2]; 318.15 K): 47.25 ± 1.1 mN/m | viscosity ([2]; 318.15 K): 6.293 ± 0.34 mPa·s | surface tension liquid-gas ([2]; 323.15 K): 46.41 ± 1.1 mN/m | viscosity ([2]; 323.15 K): 5.447 ± 0.3 mPa·s

O [water] + OCCO
surface tension liquid-gas ([1]; 308.15 K, x2 = 0): 71.02 ± 1.4 mN/m | viscosity ([1]; 308.15 K, x2 = 0): 0.721 ± 0.048 mPa·s | surface tension liquid-gas ([1]; 313.15 K, x2 = 0): 69.69 ± 1.4 mN/m | viscosity ([1]; 313.15 K, x2 = 0): 0.6532 ± 0.045 mPa·s | surface tension liquid-gas ([1]; 318.15 K, x2 = 0): 67.68 ± 1.4 mN/m | viscosity ([1]; 318.15 K, x2 = 0): 0.59 ± 0.041 mPa·s | surface tension liquid-gas ([1]; 323.15 K, x2 = 0): 66.12 ± 1.4 mN/m | viscosity ([1]; 323.15 K, x2 = 0): 0.55 ± 0.039 mPa·s

Source: the NIST ThermoML archive (doi:10.1021/je800271e)
